US20160280736A1, “CYCLIC PEPTIDE COMPOUND, AND PREPARATION METHOD, PHARMACEUTICAL COMPOSITION AND USE THEREOF” (HANGZHOU GUANYU BIO-MEDICAL CO., LTD., priority 2013, published 2016)
Like-named read-outs stand apart in the source and are kept apart here. Each block holds one molecule with its values, some of them ahead of it.

Assays:
[1] = system: MOLT-4 (human acute lymphoblastic leukemia cells); assay: MTT cancer cell growth inhibition; type: cell-based; conditions: 72 hours incubation
From the text: (§1) MTT assay principle is yellow MTT can penetrate membrane into the cell, succinic dehydrogenase of the mitochondria in living cells can make exogenous MTT reduction of insoluble in water of blue-violet acicular formazan for crystallization and deposition in the cell, crystallization can be dissolved dimethyl sulfoxide (DMSO) solution, detected its absorbance at 490 nm/570 nm wavelength by enzyme-linked immunosorbent assay, which can reflect the number of cells.
(§2) Using DMEM+10% FBS culture medium or using 1640+10% FBS culture, respectively.
(§3) Experimental group: 190 μl cell suspension+10 μl different concentrations of drugs (the final concentration is 10^−5˜10^−10 M)
(§4) a) Cells were seeded in 96-well plates with the inoculation of 1500/well, 190 μl/hole, 37° C., 5% of CO2 incubator overnight;
(§5) b) The next day each well was added 10 μl of different drugs. The final concentration of drug was 10^−5˜10^−10 M, three parallel holes; 37° C., 5% CO2 culture incubator for 72 hours incubation;
(§6) c) Per well was added 20 μl 5 mg/ml of MTT, 37° C., 5% CO2 culture incubator for 4 hours incubation;
(§7) d) The supernatant was discarded. Each well was added 100 μl of DMSO and oscillation;
(§8) e) 570 nm readings. Calculate cell viability. GI50 calculation based on the results.

[2] = system: N-87 (human gastric cancer cells); assay: MTT cancer cell growth inhibition; type: cell-based; conditions: 72 h, N-87 cells, 72 hours incubation
From the text: as §1, §2, §3, §4, §5, §6, §7, §8

[3] = system: lncap (prostate cancer cells); assay: MTT cancer cell growth inhibition; type: cell-based; conditions: 72 hours incubation
From the text: as §1, §2, §3, §4, §5, §6, §7, §8

[4] = system: BGC-823 (human gastric cancer cells); assay: MTT cancer cell growth inhibition; type: cell-based; conditions: 72 hours incubation
From the text: as §1, §2, §3, §4, §5, §6, §7, §8

[5] = system: DU145 (human prostate cancer cells); assay: MTT cancer cell growth inhibition; type: cell-based; conditions: 72 hours incubation
From the text: as §1, §2, §3, §4, §5, §6, §7, §8

[6] = system: A549 (human lung cancer cells); assay: MTT cancer cell growth inhibition; type: cell-based; conditions: 72 hours incubation
From the text: as §1, §2, §3, §4, §5, §6, §7, §8

[7] = system: Hela (human cervical cancer cells); assay: MTT cancer cell growth inhibition; type: cell-based; conditions: 72 hours incubation
From the text: as §1, §2, §3, §4, §5, §6, §7, §8

[8] = system: HT1080 (human fibrosarcoma cells); assay: MTT cancer cell growth inhibition; type: cell-based; conditions: 72 hours incubation
From the text: as §1, §2, §3, §4, §5, §6, §7, §8

[9] = system: PANC-1 (Pac-1, human pancreatic cancer cells); assay: MTT cancer cell growth inhibition; type: cell-based; conditions: 72 hours incubation
From the text: as §1, §2, §3, §4, §5, §6, §7, §8

HDAC7 = molecular target: T1, HDAC7 (Homo sapiens, UniProt Q8WUI4); assay: HDAC biochemical activity measurement (fluorescent substrate deacetylation); conditions: HDAC7 enzyme, 37°, 30 minutes
T1 sequence (Q8WUI4 1-952): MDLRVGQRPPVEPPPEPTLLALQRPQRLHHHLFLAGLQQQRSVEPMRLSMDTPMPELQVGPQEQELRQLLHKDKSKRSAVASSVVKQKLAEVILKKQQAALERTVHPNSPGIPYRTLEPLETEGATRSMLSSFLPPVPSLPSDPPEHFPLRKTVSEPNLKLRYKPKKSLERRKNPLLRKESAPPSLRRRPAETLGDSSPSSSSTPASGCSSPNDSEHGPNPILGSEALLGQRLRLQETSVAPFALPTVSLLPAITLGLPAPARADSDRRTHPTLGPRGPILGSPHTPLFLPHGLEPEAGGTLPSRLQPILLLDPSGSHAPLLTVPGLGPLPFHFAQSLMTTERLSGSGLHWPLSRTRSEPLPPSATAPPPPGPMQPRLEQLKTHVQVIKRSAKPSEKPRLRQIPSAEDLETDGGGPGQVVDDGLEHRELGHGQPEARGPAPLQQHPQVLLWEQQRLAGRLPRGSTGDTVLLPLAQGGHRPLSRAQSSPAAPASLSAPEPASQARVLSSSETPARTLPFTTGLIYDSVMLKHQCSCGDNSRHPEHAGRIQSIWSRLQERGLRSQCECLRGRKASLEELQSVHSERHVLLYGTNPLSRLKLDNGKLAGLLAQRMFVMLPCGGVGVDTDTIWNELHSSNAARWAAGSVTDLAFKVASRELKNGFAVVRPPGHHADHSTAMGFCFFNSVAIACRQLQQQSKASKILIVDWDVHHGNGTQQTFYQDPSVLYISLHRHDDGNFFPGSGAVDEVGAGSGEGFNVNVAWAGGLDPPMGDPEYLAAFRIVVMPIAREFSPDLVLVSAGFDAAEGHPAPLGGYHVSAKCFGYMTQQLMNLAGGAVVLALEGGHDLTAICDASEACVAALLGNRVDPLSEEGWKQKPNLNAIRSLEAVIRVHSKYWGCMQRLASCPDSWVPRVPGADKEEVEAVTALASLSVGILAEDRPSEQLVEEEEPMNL
Protocol: Measurement principle: The chemical activity of the compound is determined according to the degree of deacetylation inhibition of the HDAC enzyme. […] After the substrate containing an acetylated lysine side chain and HDAC enzyme are labeled with a fluorescent label, the fluorescent substrate is de acetyl. The fluorescent labeled substrate is cleaved by the enzyme, and the fluorescent substance is released, which generates 460 nm emission light under the excitation of 360 nm light.
(§9) Specific steps: HDAC substrate was diluted with reaction buffer to 200M (reaction concentration of 20M), the HDAC enzyme was diluted to the appropriate concentration, then added different concentrations of the test compounds and acted at 37 ? 30 minutes, and then added the same volume of 2-times concentration substrate developing solution (developer), incubated at room temperature for 15 minutes. Finally, the last reading measured with a microplate plate reader, excitation light was 360 nm, the emitted light was 460 nm, data processing software was Prime 4, and the results are shown in Table 1.

[10] = system: MCF-7 (human breast cancer cells); assay: MTT cancer cell growth inhibition; type: cell-based; conditions: Homo sapiens, MCF7, 72 h, 72 hours incubation, MCF-7 cells
From the text: as §1, §2, §3, §4, §5, §6, §7, §8

[11] = system: U937 (human leukemia cells); assay: MTT cancer cell growth inhibition; type: cell-based; conditions: Homo sapiens, U-937, 72 h, 72 hours incubation
From the text: as §1, §2, §3, §4, §5, §6, §7, §8

HDAC2 = HDAC2 (Homo sapiens, UniProt Q92769); assay: HDAC biochemical activity measurement (fluorescent substrate deacetylation); conditions: HDAC2 enzyme, 37°, 30 minutes
Protocol: (§10) Measurement principle: The chemical activity of the compound is determined according to the degree of deacetylation inhibition of the HDAC enzyme. This experiment measured the degree of deacetylation related to tumor proliferation and metastasis of HDAC1, HDAC2, HDAC3, HDAC8, HDAC11 five subtypes HDAC enzymes. After the substrate containing an acetylated lysine side chain and HDAC enzyme are labeled with a fluorescent label, the fluorescent substrate is de acetyl. The fluorescent labeled substrate is cleaved by the enzyme, and the fluorescent substance is released, which generates 460 nm emission light under the excitation of 360 nm light.
as §9

HDAC1 = HDAC1 (Homo sapiens, UniProt Q13547); assay: as above; conditions: HDAC1 enzyme, 37°, 30 minutes
Protocol: as §10, §9

HDAC11 = molecular target: T2, HDAC11 (Homo sapiens, UniProt Q96DB2); assay: as above; conditions: IC50 (μM) HDAC11, HDAC11 enzyme, 37°, 30 minutes
T2 sequence (Q96DB2 1-347): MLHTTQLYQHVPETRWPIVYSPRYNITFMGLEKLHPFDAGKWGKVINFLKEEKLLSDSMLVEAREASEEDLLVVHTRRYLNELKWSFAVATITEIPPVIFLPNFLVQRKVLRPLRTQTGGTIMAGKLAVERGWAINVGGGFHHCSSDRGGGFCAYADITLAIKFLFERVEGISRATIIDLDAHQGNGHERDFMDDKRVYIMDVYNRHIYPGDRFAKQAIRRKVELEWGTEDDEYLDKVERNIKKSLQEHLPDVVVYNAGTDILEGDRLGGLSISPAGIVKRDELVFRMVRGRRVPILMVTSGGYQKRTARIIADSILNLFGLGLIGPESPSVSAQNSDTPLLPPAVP
Protocol: as §10, §9

HDAC8 = molecular target: T3, HDAC8 (Homo sapiens, UniProt Q9BY41); assay: as above; conditions: HDAC8 enzyme, 37°, 30 minutes
T3 sequence (Q9BY41 1-377): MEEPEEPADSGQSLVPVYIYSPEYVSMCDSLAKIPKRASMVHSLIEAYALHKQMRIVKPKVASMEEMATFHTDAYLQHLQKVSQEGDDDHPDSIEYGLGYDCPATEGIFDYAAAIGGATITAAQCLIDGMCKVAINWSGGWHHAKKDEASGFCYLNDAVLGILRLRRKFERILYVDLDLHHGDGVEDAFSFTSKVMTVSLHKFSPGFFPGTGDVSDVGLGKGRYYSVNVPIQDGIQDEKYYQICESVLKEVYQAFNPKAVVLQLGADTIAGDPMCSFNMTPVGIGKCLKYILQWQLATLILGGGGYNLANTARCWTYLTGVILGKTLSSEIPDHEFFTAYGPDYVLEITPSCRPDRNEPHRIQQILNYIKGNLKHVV
Protocol: as §10, §9

HDAC3 = HDAC3 (Homo sapiens, UniProt O15379); assay: as above; conditions: IC50 (μM) HDAC3, HDAC3 enzyme, 37°, 30 minutes
HDAC3, sequence (O15379 whole entry, species assumed): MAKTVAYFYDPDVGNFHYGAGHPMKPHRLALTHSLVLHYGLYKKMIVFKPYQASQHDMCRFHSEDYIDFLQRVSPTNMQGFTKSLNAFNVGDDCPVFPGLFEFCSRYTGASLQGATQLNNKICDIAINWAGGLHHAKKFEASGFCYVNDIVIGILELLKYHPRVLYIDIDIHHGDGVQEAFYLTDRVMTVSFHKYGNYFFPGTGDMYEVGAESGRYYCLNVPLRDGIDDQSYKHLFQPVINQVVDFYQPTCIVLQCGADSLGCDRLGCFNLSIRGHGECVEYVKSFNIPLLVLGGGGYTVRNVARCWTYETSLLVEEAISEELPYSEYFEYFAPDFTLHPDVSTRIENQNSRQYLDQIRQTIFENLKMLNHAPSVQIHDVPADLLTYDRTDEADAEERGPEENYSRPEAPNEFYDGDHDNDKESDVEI
HDAC3, sequence (Q9Y618 395-489 partner limits assumed, species assumed): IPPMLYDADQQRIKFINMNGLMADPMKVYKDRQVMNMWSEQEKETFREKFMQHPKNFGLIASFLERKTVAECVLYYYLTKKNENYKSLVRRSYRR
Protocol: as §10, §9

HDAC2, sequence (Q92769 whole entry, species assumed): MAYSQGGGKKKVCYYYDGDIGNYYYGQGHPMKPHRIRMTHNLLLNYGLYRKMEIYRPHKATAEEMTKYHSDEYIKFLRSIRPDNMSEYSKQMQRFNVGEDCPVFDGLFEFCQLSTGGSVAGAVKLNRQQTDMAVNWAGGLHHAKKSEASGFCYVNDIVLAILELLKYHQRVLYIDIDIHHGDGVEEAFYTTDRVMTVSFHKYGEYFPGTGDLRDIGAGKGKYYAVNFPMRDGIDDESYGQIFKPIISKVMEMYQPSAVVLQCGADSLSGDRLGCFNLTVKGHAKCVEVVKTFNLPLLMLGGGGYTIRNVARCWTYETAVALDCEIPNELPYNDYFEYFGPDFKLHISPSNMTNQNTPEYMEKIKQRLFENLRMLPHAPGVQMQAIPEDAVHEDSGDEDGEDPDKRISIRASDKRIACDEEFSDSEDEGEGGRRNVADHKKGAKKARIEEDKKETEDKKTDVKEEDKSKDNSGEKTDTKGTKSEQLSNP
HDAC1, sequence (Q13547 whole entry, species assumed): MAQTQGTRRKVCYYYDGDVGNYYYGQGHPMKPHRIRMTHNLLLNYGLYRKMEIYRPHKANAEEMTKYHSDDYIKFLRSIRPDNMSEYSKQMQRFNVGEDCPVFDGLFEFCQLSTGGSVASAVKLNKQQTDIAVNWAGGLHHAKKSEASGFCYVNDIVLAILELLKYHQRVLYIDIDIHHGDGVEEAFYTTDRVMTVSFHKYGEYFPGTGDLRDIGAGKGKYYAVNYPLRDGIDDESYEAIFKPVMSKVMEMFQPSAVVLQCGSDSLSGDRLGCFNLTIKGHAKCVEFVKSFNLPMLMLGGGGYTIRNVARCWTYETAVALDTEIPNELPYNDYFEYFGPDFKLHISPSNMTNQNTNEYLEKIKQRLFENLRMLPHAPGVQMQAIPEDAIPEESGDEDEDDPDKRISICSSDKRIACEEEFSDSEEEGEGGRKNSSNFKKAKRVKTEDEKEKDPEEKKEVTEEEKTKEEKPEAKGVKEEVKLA

GI50 ([1]; Homo sapiens, MOLT-4, 72 h, drug concentration required for 50% of cell growth inhibition, read-out: GI50 (μM) Molt-): 0.005 µM
SMILES: C/C=C1\NC(=O)c2cccc(n2)CNC(=O)C[C@@H](/C=C/CCSC(=O)CCCCCCC)OC(=O)[C@H](C(C)C)NC1=O [Compound 1]

GI50 [2]: 28 nM
SMILES: C/C=C1\NC(=O)c2nc(ccc2F)CNC(=O)C[C@@H](/C=C/CCSC(C)=O)OC(=O)[C@H](C(C)C)NC1=O [Compound 93]

GI50 [2]: 23 nM
SMILES: C/C=C1\NC(=O)c2ccc(F)c(n2)CNC(=O)C[C@@H](/C=C/CCSC(C)=O)OC(=O)[C@H](C(C)C)NC1=O [Compound 95]

GI50 ([3]; drug concentration required for 50% of cell growth inhibition, read-out: GI50 (μM) lncap): 0.025 µM
GI50 ([4]; drug concentration required for 50% of cell growth inhibition, read-out: GI50 (μM) BGC8): 0.052 µM
GI50 ([5]; drug concentration required for 50% of cell growth inhibition, read-out: GI50 (μM) Du14): 0.042 µM
GI50 ([6]; drug concentration required for 50% of cell growth inhibition, read-out: GI50 (μM) A549): 0.601 µM
GI50 ([7]; drug concentration required for 50% of cell growth inhibition, read-out: GI50 (μM) Hela): 0.052 µM
GI50 ([8]; drug concentration required for 50% of cell growth inhibition, read-out: GI50 (μM) HT10): 0.083 µM
GI50 ([9]; drug concentration required for 50% of cell growth inhibition, read-out: GI50 (μM) PAN): 0.083 µM
GI50 ([1]; drug concentration required for 50% of cell growth inhibition, read-out: GI50 (μM) Molt-): 0.025 µM
IC50 (μM) HDAC7 (HDAC7): no activity
SMILES: C/C=C1\NC(=O)c2nc(F)cc(n2)CNC(=O)C[C@@H](/C=C/CCSC(C)=O)OC(=O)[C@H](C(C)C)NC1=O [Compound 98]

GI50 ([3]; Homo sapiens, LNCaP, 72 h, lncap cells, read-out: GI50 lncap): 0.051 µM
GI50 ([4]; Homo sapiens, BGC-823, 72 h, BGC-823 cells, read-out: GI50 BGC8): 0.037 µM
GI50 [10]: 23 nM
GI50 ([5]; Homo sapiens, DU-145, 72 h, DU145 cells, read-out: GI50 Du14): 0.073 µM
GI50 ([6]; Homo sapiens, A549, 72 h, A549 cells, read-out: GI50 A549): 0.025 µM
GI50 ([7]; Homo sapiens, HeLa, 72 h, Hela cells, read-out: GI50 Hela): 0.076 µM
GI50 ([8]; Homo sapiens, HT-1080, 72 h, HT1080 cells, read-out: GI50 HT10): 0.095 µM
GI50 [11]: 24 nM
GI50 ([9]; Homo sapiens, PANC-1, 72 h, PANC-1 cells, read-out: GI50 PAN): 0.026 µM
GI50 ([1]; Homo sapiens, MOLT-4, 72 h, MOLT-4 cells, read-out: GI50 Molt-): 0.025 µM
IC50 (HDAC2): 0.019 µM
IC50 (HDAC1): 0.082 µM
IC50 (HDAC11): 0.091 µM
IC50 (HDAC8): 0.027 µM
IC50 (HDAC3): 0.051 µM
SMILES: C/C=C1\NC(=O)c2cc(SC)cc(n2)CNC(=O)C[C@@H](/C=C/CCSC(=O)CCCC)OC(=O)[C@H](C(C)C)NC1=O [Compound 157]
